The values that follow come from patent publication US12527794B2, “Compositions, formulations, and methods for hair treatment” (Oddity Labs, LLC, priority 2021, dated 2026).

The assay deals with human hair follicle dermal papilla cells (hFDPC). The experiment in a line: Human follicle dermal papilla cell (hFDPC) proliferation, cell viability assay. Type of assay: cell-based. Particulars: hFDPCs supplemented with BIO, BMP-2 and FGFβ. The procedure: The ability of a compound or salt of the present disclosure to increase proliferation of human hair follicle dermal papilla cells (hFDPC) was tested using a cell viability assay, such as the Promega CellTiter-Glo® Luminescent Cell Viability Assay, MTT cell proliferation assay (ATCC® 30-1010K) or cell counting. […] In Table 8, A represents less than 20% of increased proliferation of hFDPCs, B represents 20-40%, and C represents larger than 40% of increased proliferation of hFDPCs. For this assay, hFDPCs were cultured on tissue culture-treated plastic and supplemented with 6-bromoindirubin-39-Oxime (BIO), recombinant bone morphogenetic protein-2 (BMP-2), and basic fibroblast growth factor (FGFβ), whose combination was previously found to preserve in situ dermal papilla gene signatures.
Take `C=CCc1cc(/C=C2\C(=O)NC(=O)N(c3ccc(C(C)C)cc3)C2=O)cc(OC)c1O` [Compound I-1, 2,4,6(1H,3H,5H)-Pyrimidinetrione, 5-[[4-hydroxy-3-methoxy-5-(2-propen-1-yl)phenyl]methylene]-1-[4-(1-methylethyl)phenyl]-]: the “Percent Increase Proliferation of hFDPCs (%)” value is on record as “A (A represents less than 20% of increased proliferation of hFDPCs)”.

In the case of `C=CCc1cc(/C=C2\C(=O)NC(=O)N(c3cc(C)cc(C)c3)C2=O)cc(OCC)c1O` [Compound I-2, 2,4,6(1H,3H,5H)-Pyrimidinetrione, 1-(3,5-dimethylphenyl)-5-[[3-ethoxy-4-hydroxy-5-(2-propen-1-yl)phenyl]methylene]-], the “Percent Increase Proliferation of hFDPCs (%)” value is “B (B represents 20-40%)”.

With `C=CCc1cc(/C=C2\C(=O)NC(=O)N(c3cc(C)cc(C)c3)C2=O)cc(OC)c1O` [Compound I-3, 2,4,6(1H,3H,5H)-Pyrimidinetrione, 1-(3,5-dimethylphenyl)-5-[[4-hydroxy-3-methoxy-5-(2-propen-1-yl)phenyl]methylene]-], the “Percent Increase Proliferation of hFDPCs (%)” value is given as “A (A represents less than 20% of increased proliferation of hFDPCs)”.

On to `C=CCc1cc(/C=C2\C(=O)NC(=O)N(c3ccc(C)c(C)c3)C2=O)cc(OC)c1O` [Compound I-4, 2,4,6(1H,3H,5H)-Pyrimidinetrione, 1-(3,4-dimethylphenyl)-5-[[4-hydroxy-3-methoxy-5-(2-propen-1-yl)phenyl]methylene]], for which the “Percent Increase Proliferation of hFDPCs (%)” value is given as “A (A represents less than 20% of increased proliferation of hFDPCs)”.

Turning to `COc1cc(/C=C2\C(=O)NC(=O)N(Cc3ccccc3)C2=O)cc(OC)c1O` [Compound I-5, 2,4,6(1H,3H,5H)-Pyrimidinetrione, 5-[(4-hydroxy-3,5-dimethoxyphenyl)methylene]-1-(phenylmethyl)-], the “Percent Increase Proliferation of hFDPCs (%)” value was “B (B represents 20-40%)”.

As for `C=CCN1C(=O)NC(=O)/C(=C\c2ccc(OC)cc2OC)C1=O` [Compound I-6, 2,4,6(1H,3H,5H)-Pyrimidinetrione, 5-[(2,4-dimethoxyphenyl)methylene]-1-(2-propen-1-yl)-], the “Percent Increase Proliferation of hFDPCs (%)” value is recorded as “A (A represents less than 20% of increased proliferation of hFDPCs)”.

Consider `C=CCOc1ccc(/C=C2/C(=O)NC(=O)N(CC=C)C2=O)cc1OC` [Compound I-7, 2,4,6(1H,3H,5H)-Pyrimidinetrione, 5-[[3-methoxy-4-(2-propen-1-yloxy)phenyl]methylene]-1-(2-propen-1-yl)-], for which the “Percent Increase Proliferation of hFDPCs (%)” value is “A (A represents less than 20% of increased proliferation of hFDPCs)”.

For `C=CCc1cc(C=C2C(=O)NC(=S)NC2=O)cc(OCC)c1O` [Compound I-8, 4,6(1H,5H)-Pyrimidinedione, 5-[[3-ethoxy-4-hydroxy-5-(2-propen-1-yl)phenyl]methylene]dihydro-2-thioxo-], the “Percent Increase Proliferation of hFDPCs (%)” value is “B (B represents 20-40%)”.

On to `C=CCc1cc(C=C2C(=O)NC(=S)NC2=O)cc(OC)c1O` [Compound I-9, 4,6(1H,5H)-Pyrimidinedione, dihydro-5-[[4-hydroxy-3-methoxy-5-(2-propen-1-yl)phenyl]methylene]-2-thioxo-], for which the “Percent Increase Proliferation of hFDPCs (%)” value is recorded as “B (B represents 20-40%)”.

On to `C=CCc1cc(/C=C2\C(=O)NC(=S)N(C)C2=O)cc(OC)c1OCC` [Compound I-10, 4,6(1H,5H)-Pyrimidinedione, 5-[[4-ethoxy-3-methoxy-5-(2-propen-1-yl)phenyl]methylene]dihydro-1-methyl-2-thioxo-], for which the “Percent Increase Proliferation of hFDPCs (%)” value is listed as “A (A represents less than 20% of increased proliferation of hFDPCs)”.

Consider `COc1ccc(/C=C2\C(=O)NC(=O)N(C)C2=O)c(OC)c1` [Compound I-11, 2,4,6(1H,3H,5H)-Pyrimidinetrione, 5-[(2,4-dimethoxyphenyl)methylene]-1-methyl-, (5E)-], for which the “Percent Increase Proliferation of hFDPCs (%)” value was “A (A represents less than 20% of increased proliferation of hFDPCs)”.

Turning to `CCCCN1CCc2cc(/C=C3\C(=O)NC(=O)N(C)C3=O)ccc21` [Compound I-12, 2,4,6(1H,3H,5H)-Pyrimidinetrione, 5-[(1-butyl-2,3-dihydro-1H-indol-5-yl)methylene]-1-methyl-], the “Percent Increase Proliferation of hFDPCs (%)” value is reported as “B (B represents 20-40%)”.

On to `CN1C(=O)NC(=O)/C(=C/c2cnc(N(C)C)nc2)C1=O` [Compound I-13, 2,4,6(1H,3H,5H)-Pyrimidinetrione, 5-[[2-(dimethylamino)-5-pyrimidinyl]methylene]-1-methyl-], for which the “Percent Increase Proliferation of hFDPCs (%)” value is “A (A represents less than 20% of increased proliferation of hFDPCs)”.

Consider `CN1C(=O)NC(=O)/C(=C\c2cccc(OCC(=O)O)c2)C1=O` [Compound I-14, Acetic acid, 2-[3-[(tetrahydro-1-methyl-2,4,6-trioxo-5(2H)-pyrimidinylidene)methyl]phenoxy]-], for which the “Percent Increase Proliferation of hFDPCs (%)” value is recorded as “A (A represents less than 20% of increased proliferation of hFDPCs)”.

`COc1cc([N+](=O)[O-])cc(/C=C2\C(=O)NC(=O)N(C)C2=O)c1O` [Compound I-15, 2,4,6(1H,3H,5H)-Pyrimidinetrione, 5-[(2-hydroxy-3-methoxy-5-nitrophenyl)methylene]-1-methyl-]: the “Percent Increase Proliferation of hFDPCs (%)” value is “B (B represents 20-40%)”.

For the compound `C=CCc1cc(/C=C2\C(=O)NC(=O)N(C)C2=O)cc(OC)c1O` [Compound I-16, 2,4,6(1H,3H,5H)-Pyrimidinetrione, 5-[[4-hydroxy-3-methoxy-5-(2-propen-1-yl)phenyl]methylene]-1-methyl-], the “Percent Increase Proliferation of hFDPCs (%)” value is “A (A represents less than 20% of increased proliferation of hFDPCs)”.

Regarding `Cc1cccc(Cn2cnc(NC(=O)c3cc(-c4cccnc4)nc4ccc(C)cc34)n2)c1` [III-2, 4-Quinolinecarboxamide, 6-methyl-N-[1-[(3-methylphenyl)methyl]-1H-1,2,4-triazol-3-yl]-2-(3-pyridinyl)-], the “Percent Increase Proliferation of hFDPCs (%)” value is “A (A represents less than 20% of increased proliferation of hFDPCs)”.

As for `CCOCCc1nnc(NC(=O)c2cc(-c3ccccc3)nc3ccccc23)s1` [III-4, 4-Quinolinecarboxamide, N-[5-(2-ethoxyethyl)-1,3,4-thiadiazol-2-yl]-2-phenyl-], the “Percent Increase Proliferation of hFDPCs (%)” value was “B (B represents 20-40%)”.

For the compound `CC(C)(C)Nc1nnc(SCc2cc(=O)oc3cc(O)ccc23)s1` [IV-1, 2H-1-Benzopyran-2-one, 4-[[[5-[(1,1-dimethylethyl)amino]-1,3,4-thiadiazol-2-yl]thio]methyl]-7-hydroxy-], the “Percent Increase Proliferation of hFDPCs (%)” value is on record as “B (B represents 20-40%)”.

Regarding `CCC(C)Cc1c(C)sc2[nH]c(SCc3cc(=O)oc4cc(O)ccc34)nc(=O)c12` (stereo not drawn) [IV-4, Thieno[2,3-d]pyrimidin-4(1H)-one, 2-[[(7-hydroxy-2-oxo-2H-1-benzopyran-4-yl)methyl]thio]-6-methyl-5-(2-methylbutyl)-], the “Percent Increase Proliferation of hFDPCs (%)” value is “A (A represents less than 20% of increased proliferation of hFDPCs)”.

Turning to `O=C(O)CC1SC(NN=Cc2ccc(OS(=O)(=O)c3ccc([N+](=O)[O-])cc3)cc2)=NC1=O` (stereo not drawn) [VI-6, 5-Thiazoleacetic acid, 4,5-dihydro-2-[2-[[4-[[(4-nitrophenyl)sulfonyl]oxy]phenyl]methylene] hydrazinyl]-4-oxo-], the “Percent Increase Proliferation of hFDPCs (%)” value is on record as “A (A represents less than 20% of increased proliferation of hFDPCs)”.
